Key:
[1] = target: D(1A) dopamine receptor (Homo sapiens) (UniProt P21728); conditions: Compound concentration 10.0 uM
[2] = target: Muscarinic acetylcholine receptor M3 (Homo sapiens) (UniProt P20309); conditions: Compound concentration 10.0 uM
[3] = target: T1, 5-hydroxytryptamine receptor 1D (Homo sapiens, UniProt P28221); conditions: Compound concentration 10.0 uM
[4] = target: T1, 5-hydroxytryptamine receptor 1D; assay: GPCRScan assay: inhibition of 5-HT1D; parameters: radioligand conc. used [nm] 1.0 – 2.0, parental cells HEKT
[5] = target: T2, Sodium-dependent dopamine transporter (Homo sapiens, UniProt Q01959); conditions: Compound concentration 10.0 uM
T2 sequence (Q01959 whole entry): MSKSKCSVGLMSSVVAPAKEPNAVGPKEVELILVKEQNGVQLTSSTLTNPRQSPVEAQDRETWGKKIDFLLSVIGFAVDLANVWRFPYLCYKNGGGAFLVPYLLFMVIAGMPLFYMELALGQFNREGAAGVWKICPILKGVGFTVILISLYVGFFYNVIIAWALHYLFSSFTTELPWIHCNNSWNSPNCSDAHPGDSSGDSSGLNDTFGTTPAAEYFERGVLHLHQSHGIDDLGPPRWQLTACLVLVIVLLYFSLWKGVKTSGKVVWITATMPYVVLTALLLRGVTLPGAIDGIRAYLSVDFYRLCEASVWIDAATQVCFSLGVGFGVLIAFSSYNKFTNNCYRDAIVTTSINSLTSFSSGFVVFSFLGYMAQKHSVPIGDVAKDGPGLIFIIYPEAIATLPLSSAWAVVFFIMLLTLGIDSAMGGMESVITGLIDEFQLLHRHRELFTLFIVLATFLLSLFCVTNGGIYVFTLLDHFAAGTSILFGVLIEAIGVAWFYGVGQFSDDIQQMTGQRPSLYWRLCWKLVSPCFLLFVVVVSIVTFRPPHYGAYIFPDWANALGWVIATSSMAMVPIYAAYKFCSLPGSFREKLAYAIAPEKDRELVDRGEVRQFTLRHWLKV

[6] = target: 5-hydroxytryptamine receptor 1A (Homo sapiens, UniProt P08908); assay: GPCRScan assay: inhibition of 5-HT1A; parameters: radioligand conc. used [nm] 0.5 – 1.0, parental cells stable CHO
Sequence of 5-hydroxytryptamine receptor 1A (P08908 whole entry): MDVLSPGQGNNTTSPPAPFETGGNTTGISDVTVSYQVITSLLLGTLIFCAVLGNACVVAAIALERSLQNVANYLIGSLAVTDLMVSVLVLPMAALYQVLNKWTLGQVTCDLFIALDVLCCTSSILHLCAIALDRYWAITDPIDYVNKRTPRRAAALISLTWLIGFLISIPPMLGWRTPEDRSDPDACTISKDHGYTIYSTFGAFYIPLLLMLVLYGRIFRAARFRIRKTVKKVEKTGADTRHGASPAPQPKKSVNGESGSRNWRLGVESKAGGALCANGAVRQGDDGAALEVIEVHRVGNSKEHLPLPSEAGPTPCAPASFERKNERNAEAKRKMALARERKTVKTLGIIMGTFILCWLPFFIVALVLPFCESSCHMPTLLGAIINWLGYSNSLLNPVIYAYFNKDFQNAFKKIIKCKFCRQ

[7] = target: Beta-3 adrenergic receptor (Homo sapiens) (UniProt P13945); conditions: Compound concentration 10.0 uM
[8] = target: T3, 5-hydroxytryptamine receptor 3A (Homo sapiens, UniProt P46098); assay: GPCRScan assay: inhibition of 5-HT3; parameters: radioligand conc. used [nm] 1.0 – 2.0, parental cells HEKT
T3 sequence (P46098 whole entry): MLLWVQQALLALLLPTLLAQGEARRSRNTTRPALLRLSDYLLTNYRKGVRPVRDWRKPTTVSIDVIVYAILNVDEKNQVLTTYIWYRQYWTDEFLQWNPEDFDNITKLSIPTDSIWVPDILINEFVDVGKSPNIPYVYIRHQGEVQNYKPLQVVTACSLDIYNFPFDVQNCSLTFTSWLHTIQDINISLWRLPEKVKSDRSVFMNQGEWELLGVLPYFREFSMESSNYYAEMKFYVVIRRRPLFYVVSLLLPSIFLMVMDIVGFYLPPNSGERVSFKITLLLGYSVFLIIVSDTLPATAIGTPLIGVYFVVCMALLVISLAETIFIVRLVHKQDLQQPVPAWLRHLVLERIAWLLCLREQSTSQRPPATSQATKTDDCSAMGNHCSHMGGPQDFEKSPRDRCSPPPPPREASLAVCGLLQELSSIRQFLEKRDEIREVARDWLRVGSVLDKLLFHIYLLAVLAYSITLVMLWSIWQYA

[9] = target: Beta-1 adrenergic receptor (Homo sapiens) (UniProt P08588); conditions: Compound concentration 10.0 uM
[10] = target: Delta-type opioid receptor (Homo sapiens) (UniProt P41143); conditions: Compound concentration 10.0 uM
[11] = target: GABA-A receptor; anion channel; assay: GPCRScan assay: inhibition of GABAA/BZP; type: protein-complex assay, Rattus norvegicus; parameters: radioligand conc. used [nm] 0.6 – 4.0, parental cells brain tissue
[12] = target: Mu-type opioid receptor (Homo sapiens) (UniProt P35372); conditions: Compound concentration 10.0 uM
[13] = target: Alpha-1B adrenergic receptor (Homo sapiens) (UniProt P35368); conditions: Compound concentration 10.0 uM
[14] = target: T4, 5-hydroxytryptamine receptor 1B (Homo sapiens, UniProt P28222); conditions: Compound concentration 10.0 uM
T4 sequence (P28222 whole entry): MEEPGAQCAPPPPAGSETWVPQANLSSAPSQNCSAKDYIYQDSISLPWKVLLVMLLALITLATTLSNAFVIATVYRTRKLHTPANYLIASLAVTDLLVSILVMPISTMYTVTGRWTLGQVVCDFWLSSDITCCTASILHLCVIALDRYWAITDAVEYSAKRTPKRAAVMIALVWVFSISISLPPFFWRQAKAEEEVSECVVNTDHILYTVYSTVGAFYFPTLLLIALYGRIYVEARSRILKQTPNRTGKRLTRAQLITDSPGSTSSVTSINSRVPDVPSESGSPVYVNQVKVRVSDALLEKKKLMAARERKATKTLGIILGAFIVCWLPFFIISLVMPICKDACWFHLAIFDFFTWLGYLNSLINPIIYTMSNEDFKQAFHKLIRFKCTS

[15] = target: T5, 5-hydroxytryptamine receptor 6 (Homo sapiens, UniProt P50406); conditions: Compound concentration 10.0 uM
T5 sequence (P50406 whole entry): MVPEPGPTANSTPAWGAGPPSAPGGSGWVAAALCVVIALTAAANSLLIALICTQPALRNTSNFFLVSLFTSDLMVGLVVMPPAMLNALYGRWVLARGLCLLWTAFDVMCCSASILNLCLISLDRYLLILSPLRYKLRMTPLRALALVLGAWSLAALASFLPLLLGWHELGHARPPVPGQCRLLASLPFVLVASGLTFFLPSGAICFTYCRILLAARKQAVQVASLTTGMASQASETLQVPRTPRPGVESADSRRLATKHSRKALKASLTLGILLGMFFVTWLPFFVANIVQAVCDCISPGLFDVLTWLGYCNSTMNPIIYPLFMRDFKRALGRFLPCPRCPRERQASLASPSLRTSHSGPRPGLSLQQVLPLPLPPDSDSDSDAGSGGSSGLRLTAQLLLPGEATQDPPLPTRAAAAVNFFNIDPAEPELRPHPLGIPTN

[16] = target: D(1B) dopamine receptor (Homo sapiens) (UniProt P21918); conditions: Compound concentration 10.0 uM
[17] = target: 5-hydroxytryptamine receptor 5A (Homo sapiens) (UniProt P47898); conditions: Compound concentration 10.0 uM
Sequence of 5-hydroxytryptamine receptor 5A (Homo sapiens) (P47898 whole entry): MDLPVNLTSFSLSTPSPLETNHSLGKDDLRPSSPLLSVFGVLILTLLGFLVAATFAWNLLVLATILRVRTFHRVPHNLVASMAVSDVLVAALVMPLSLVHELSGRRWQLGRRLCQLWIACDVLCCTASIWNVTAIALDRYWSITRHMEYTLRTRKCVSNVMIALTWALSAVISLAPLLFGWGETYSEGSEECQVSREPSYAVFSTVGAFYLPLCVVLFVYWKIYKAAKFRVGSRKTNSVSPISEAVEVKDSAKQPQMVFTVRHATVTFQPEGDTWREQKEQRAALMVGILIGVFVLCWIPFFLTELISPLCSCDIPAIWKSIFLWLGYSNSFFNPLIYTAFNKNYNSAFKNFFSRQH

[18] = target: Muscarinic acetylcholine receptor M4 (Homo sapiens) (UniProt P08173); conditions: Compound concentration 10.0 uM
[19] = target: T2, Sodium-dependent dopamine transporter; assay: GPCRScan assay: inhibition of DAT; parameters: radioligand conc. used [nm] 3.6 – 16.0, parental cells stable HEK
[20] = target: Histamine H3 receptor (Homo sapiens) (UniProt Q9Y5N1); conditions: Compound concentration 10.0 uM
[21] = target: Muscarinic acetylcholine receptor M2 (Homo sapiens) (UniProt P08172); conditions: Compound concentration 10.0 uM
[22] = target: 5-hydroxytryptamine receptor 2C (Homo sapiens) (UniProt P28335); conditions: Compound concentration 10.0 uM
[23] = target: Alpha-1D adrenergic receptor (Homo sapiens) (UniProt P25100); conditions: Compound concentration 10.0 uM
[24] = target: T6, GABA-A receptor; anion channel (Rattus norvegicus) (UniProt O09028+P15431+P18506+P18508+P19969+P20236+P23574+P23576+P28471+P28473+P30191+P62813+P63079+P63138+Q91ZM7+Q9ES14); conditions: Compound concentration 10.0 uM
[25] = target: 5-hydroxytryptamine receptor 7 (Homo sapiens) (UniProt P34969); conditions: Compound concentration 10.0 uM
[26] = target: Muscarinic acetylcholine receptor M1 (Homo sapiens) (UniProt P11229); conditions: Compound concentration 10.0 uM
[27] = target: T7, Sigma intracellular receptor 2 (Homo sapiens, UniProt Q5BJF2); assay: GPCRScan assay: inhibition of Sigma 2; parameters: radioligand conc. used [nm] 5.0, parental cells HEKT
T7 sequence (Q5BJF2 whole entry): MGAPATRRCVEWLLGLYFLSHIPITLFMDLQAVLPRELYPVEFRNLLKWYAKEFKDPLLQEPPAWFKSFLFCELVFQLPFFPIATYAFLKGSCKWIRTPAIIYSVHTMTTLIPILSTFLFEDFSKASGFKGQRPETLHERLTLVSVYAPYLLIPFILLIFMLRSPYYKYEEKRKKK

[28] = target: 5-hydroxytryptamine receptor 1A (Homo sapiens) (UniProt P08908); conditions: Compound concentration 10.0 uM
Sequence of 5-hydroxytryptamine receptor 1A (Homo sapiens) (P08908 whole entry): as the sequence (P08908 whole entry) above

[29] = target: Histamine H4 receptor (Homo sapiens) (UniProt Q9H3N8); conditions: Compound concentration 10.0 uM
Sequence of Histamine H4 receptor (Homo sapiens) (Q9H3N8 whole entry): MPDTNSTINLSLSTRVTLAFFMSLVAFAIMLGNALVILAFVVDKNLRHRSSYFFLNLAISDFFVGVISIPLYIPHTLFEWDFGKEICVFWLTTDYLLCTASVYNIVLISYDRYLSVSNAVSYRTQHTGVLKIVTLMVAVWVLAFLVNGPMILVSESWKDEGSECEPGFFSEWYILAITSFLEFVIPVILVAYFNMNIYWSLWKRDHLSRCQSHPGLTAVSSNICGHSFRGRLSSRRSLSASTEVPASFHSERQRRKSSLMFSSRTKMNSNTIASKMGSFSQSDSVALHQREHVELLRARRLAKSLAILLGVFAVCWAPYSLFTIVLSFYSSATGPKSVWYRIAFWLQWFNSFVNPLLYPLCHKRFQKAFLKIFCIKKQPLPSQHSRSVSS

[30] = target: T7, Sigma intracellular receptor 2; conditions: Compound concentration 10.0 uM
Rattus norvegicus = organism: Rattus norvegicus; conditions: Compound concentration 10.0 uM
[31] = target: Sodium-dependent serotonin transporter (Homo sapiens) (UniProt P31645); conditions: Compound concentration 10.0 uM
Sequence of Sodium-dependent serotonin transporter (Homo sapiens) (P31645 whole entry, looked up): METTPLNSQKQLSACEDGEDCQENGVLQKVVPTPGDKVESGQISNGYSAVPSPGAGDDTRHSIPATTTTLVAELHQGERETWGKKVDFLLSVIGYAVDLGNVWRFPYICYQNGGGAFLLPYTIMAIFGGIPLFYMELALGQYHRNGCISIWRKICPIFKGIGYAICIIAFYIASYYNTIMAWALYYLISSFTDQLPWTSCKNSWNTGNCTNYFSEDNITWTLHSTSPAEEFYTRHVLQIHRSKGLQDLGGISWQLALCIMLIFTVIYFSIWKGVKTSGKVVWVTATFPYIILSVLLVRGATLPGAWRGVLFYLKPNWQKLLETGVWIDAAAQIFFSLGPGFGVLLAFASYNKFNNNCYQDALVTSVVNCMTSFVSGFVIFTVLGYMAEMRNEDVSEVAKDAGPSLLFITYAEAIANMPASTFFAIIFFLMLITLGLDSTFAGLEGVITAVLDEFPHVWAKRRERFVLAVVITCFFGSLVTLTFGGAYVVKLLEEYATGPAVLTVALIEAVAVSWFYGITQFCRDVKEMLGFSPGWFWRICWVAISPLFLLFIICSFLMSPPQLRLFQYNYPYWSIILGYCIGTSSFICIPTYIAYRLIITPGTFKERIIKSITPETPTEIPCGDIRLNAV

[32] = target: Sodium-dependent noradrenaline transporter (Homo sapiens) (UniProt P23975); conditions: Compound concentration 10.0 uM
[33] = target: Histamine H2 receptor (Homo sapiens) (UniProt P25021); conditions: Compound concentration 10.0 uM
[34] = target: Alpha-2C adrenergic receptor (Homo sapiens) (UniProt P18825); conditions: Compound concentration 10.0 uM
[35] = target: D(3) dopamine receptor (Homo sapiens) (UniProt P35462); conditions: Compound concentration 10.0 uM
[36] = target: Beta-2 adrenergic receptor (Homo sapiens) (UniProt P07550); conditions: Compound concentration 10.0 uM
[37] = target: T6, GABA-A receptor; anion channel (Rattus norvegicus); conditions: Compound concentration 10.0 uM; remark: listed apart in the source
[38] = target: T5, 5-hydroxytryptamine receptor 6; assay: GPCRScan assay: inhibition of 5-HT6; parameters: radioligand conc. used [nm] 2.0 – 4.0, parental cells stable HEK
D(2) dopamine receptor [39] = target: T8, D(2) dopamine receptor (Homo sapiens, UniProt P14416); conditions: Compound concentration 10.0 uM
T8 sequence (P14416 whole entry): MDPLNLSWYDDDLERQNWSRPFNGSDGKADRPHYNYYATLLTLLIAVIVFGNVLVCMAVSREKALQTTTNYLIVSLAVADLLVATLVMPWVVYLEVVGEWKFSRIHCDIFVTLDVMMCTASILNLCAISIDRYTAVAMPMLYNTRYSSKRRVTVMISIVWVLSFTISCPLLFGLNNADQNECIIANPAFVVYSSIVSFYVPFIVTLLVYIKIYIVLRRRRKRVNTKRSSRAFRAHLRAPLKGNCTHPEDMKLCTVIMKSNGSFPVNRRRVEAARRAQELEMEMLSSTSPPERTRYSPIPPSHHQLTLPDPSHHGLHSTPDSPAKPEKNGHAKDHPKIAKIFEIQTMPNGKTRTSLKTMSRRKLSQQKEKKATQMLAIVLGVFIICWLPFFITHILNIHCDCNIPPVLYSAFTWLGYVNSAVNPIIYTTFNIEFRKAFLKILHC

[40] = target: Alpha-2A adrenergic receptor (Homo sapiens) (UniProt P08913); conditions: Compound concentration 10.0 uM
[41] = target: Muscarinic acetylcholine receptor M5 (Homo sapiens) (UniProt P08912); conditions: Compound concentration 10.0 uM
[42] = target: 5-hydroxytryptamine receptor 3A (Homo sapiens) (UniProt P46098); conditions: Compound concentration 10.0 uM
[43] = target: Alpha-2B adrenergic receptor (Homo sapiens) (UniProt P18089); conditions: Compound concentration 10.0 uM
[44] = target: 5-hydroxytryptamine receptor 2A (Homo sapiens) (UniProt P28223); conditions: Compound concentration 10.0 uM
[45] = target: T4, 5-hydroxytryptamine receptor 1B; assay: GPCRScan assay: inhibition of 5-HT1B; parameters: radioligand conc. used [nm] 0.6 – 1.5, parental cells stable HEK
D(2) dopamine receptor [46] = target: T8, D(2) dopamine receptor; assay: GPCRScan assay: inhibition of D2; parameters: radioligand conc. used [nm] 0.4 – 1.0, parental cells stable fibroblast
[47] = target: 5-hydroxytryptamine receptor 2B (Homo sapiens) (UniProt P41595); conditions: Compound concentration 10.0 uM
[48] = target: D(4) dopamine receptor (Homo sapiens) (UniProt P21917); conditions: Compound concentration 10.0 uM
[49] = target: Histamine H1 receptor (Homo sapiens) (UniProt P35367); conditions: Compound concentration 10.0 uM
Sequence of Histamine H1 receptor (Homo sapiens) (P35367 whole entry): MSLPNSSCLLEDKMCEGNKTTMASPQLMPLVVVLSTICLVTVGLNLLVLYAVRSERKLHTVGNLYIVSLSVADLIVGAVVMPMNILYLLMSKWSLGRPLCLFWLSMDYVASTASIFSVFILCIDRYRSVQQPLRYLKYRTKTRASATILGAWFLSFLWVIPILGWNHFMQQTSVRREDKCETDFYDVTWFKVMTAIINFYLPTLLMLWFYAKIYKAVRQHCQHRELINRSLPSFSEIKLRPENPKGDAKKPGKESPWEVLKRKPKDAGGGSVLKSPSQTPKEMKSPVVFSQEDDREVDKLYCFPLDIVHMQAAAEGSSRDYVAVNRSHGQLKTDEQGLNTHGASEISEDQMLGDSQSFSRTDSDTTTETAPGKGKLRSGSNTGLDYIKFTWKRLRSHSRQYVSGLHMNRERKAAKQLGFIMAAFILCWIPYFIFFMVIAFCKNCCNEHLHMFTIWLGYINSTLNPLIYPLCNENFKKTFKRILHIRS

[50] = target: Alpha-1A adrenergic receptor (Homo sapiens) (UniProt P35348); conditions: Compound concentration 10.0 uM
[51] = target: Kappa-type opioid receptor (Homo sapiens) (UniProt P41145); conditions: Compound concentration 10.0 uM
[52] = target: 5-hydroxytryptamine receptor 1E (Homo sapiens) (UniProt P28566); conditions: Compound concentration 10.0 uM
[53] = target: Sigma non-opioid intracellular receptor 1 (Homo sapiens) (UniProt Q99720); conditions: Compound concentration 10.0 uM
[54] = target: T9, Mas-related G-protein coupled receptor member X2 (Homo sapiens, UniProt Q96LB1); assay: PRESTO-Tango concentration response assay
[55] = target: T9, Mas-related G-protein coupled receptor member X2; assay: FLIPR assay
[56] = target: Alpha-1B adrenergic receptor (Homo sapiens, UniProt P35368); assay: GPCRScan assay: inhibition of Alpha1B; parameters: radioligand conc. used [nm] 0.3 – 1.0, parental cells stable HEK

T1 sequence (P28221 whole entry): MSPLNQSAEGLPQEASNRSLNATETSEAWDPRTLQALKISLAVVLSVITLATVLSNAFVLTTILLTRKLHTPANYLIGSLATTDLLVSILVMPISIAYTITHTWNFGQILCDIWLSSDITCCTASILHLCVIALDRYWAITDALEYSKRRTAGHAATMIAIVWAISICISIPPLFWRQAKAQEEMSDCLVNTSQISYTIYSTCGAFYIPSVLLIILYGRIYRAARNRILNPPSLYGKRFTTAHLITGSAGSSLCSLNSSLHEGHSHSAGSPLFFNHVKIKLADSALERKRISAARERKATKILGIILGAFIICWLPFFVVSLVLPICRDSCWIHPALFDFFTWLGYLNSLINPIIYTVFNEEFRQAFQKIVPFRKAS

For CN(C)[C@@H]1CCN(c2cc(-c3ccccc3)nc3ccnn23)C1 [(R)-ZINC-3573], the inhibition [1] was 38.9%, the inhibition [2] was 11.7% and the inhibition [3] was 58.4%. For the same compound, the Ki ([4]; read-out: Ki) was 1740 nM, the Ki ([4]; read-out: pKi (converted)) was 1700 nM and the inhibition [5] was 74.3%. For the same compound, the Ki [6] was 1620 nM, the inhibition [7] was 12.7% and the Ki ([8]; read-out: Ki) was 2.96 µM. The Ki ([8]; read-out: pKi (converted)) was 2.88 µM, the inhibition [9] was 30.7% and the inhibition [10] was 34.3%. For the same compound, the Ki [11] was 1940 nM, the pKi [11] was 5.73 and the inhibition [12] was 21.3%. It also gave an inhibition [13] of 10.2%, an inhibition [14] of 52.5% and an inhibition [15] of 58.9%. It also gave an inhibition [16] of 6.36%, an inhibition [17] of 13.8% and an inhibition [18] of 28.8%. It also gave a Ki ([19]; read-out: Ki) of 1110 nM, a Ki ([19]; read-out: pKi (converted)) of 1100 nM and an inhibition [20] of 38.6%. The inhibition [21] was 20.1%, the inhibition [22] was 2.22% and the inhibition [23] was 20.4%. For the same compound, the inhibition [24] was 37.3%, the inhibition [25] was 12.3% and the inhibition [26] was 5.27%. The Ki ([27]; read-out: Ki) was 489 nM, the Ki ([27]; read-out: pKi (converted)) was 479 nM and the inhibition [28] was 64.8%. For the same compound, the inhibition [29] was 7.75%, the inhibition [30] was 82.4% and the inhibition (Rattus norvegicus) was 11.6%. It also gave an inhibition [31] of 4.09%, an inhibition [32] of 45.4% and an inhibition [33] of 31.9%. For the same compound, the inhibition [34] was 40.5%, the inhibition [35] was 28.1% and the inhibition [36] was 14.4%. It also gave an inhibition [37] of 54.9%, a Ki ([38]; read-out: Ki) of 748 nM and an inhibition (D(2) dopamine receptor [39]) of 69.8%. For the same compound, the inhibition [40] was 32.9%, the inhibition [41] was -3.76% and the inhibition [42] was 76.6%. The inhibition [43] was 11.3%, the inhibition [44] was 16.3% and the Ki [45] was 3.24 µM. It also gave a Ki (D(2) dopamine receptor [46]; read-out: Ki) of 369 nM, a Ki (D(2) dopamine receptor [46]; read-out: pKi (converted)) of 355 nM and an inhibition [47] of 16.7%. For the same compound, the inhibition [48] was 32.6%, the inhibition [49] was 39.3% and the inhibition [50] was 21.8%. It also gave an inhibition [51] of 13.6%, an inhibition [52] of 7.26% and an inhibition [53] of 28.6%.
With CN(C)[C@H]1CCN(c2cc(-c3ccccc3)nc3ccnn23)C1 [(S)-ZINC-3573] the inhibition [2] was 29.4%, the EC50 [54] was > 100 µM (not active) and the inhibition [3] was 63.2%. The EC50 [55] was > 100 µM (not active), the Ki ([4]; read-out: Ki) was 2960 nM and the Ki ([4]; read-out: pKi (converted)) was 2880 nM. The inhibition [5] was -1.89%, the inhibition [7] was 18.9% and the Ki ([8]; read-out: Ki) was 3.63 µM. The Ki ([8]; read-out: pKi (converted)) was 3.55 µM, the inhibition [9] was 4.16% and the inhibition [10] was 2.89%. For the same compound, the inhibition [12] was 9.07%, the inhibition [13] was 59.1% and the inhibition [14] was 4.88%. For the same compound, the inhibition [15] was 69.1%, the inhibition [16] was 3.36% and the inhibition [17] was 5.42%. It also gave an inhibition [18] of 34.4%, an inhibition [20] of 13.4% and an inhibition [21] of 26.6%. It also gave an inhibition [22] of -3.16%, an inhibition [23] of 33.5% and an inhibition [25] of 7.57%. For the same compound, the inhibition [26] was 42.8%, the Ki ([27]; read-out: Ki) was 973 nM and the inhibition [28] was 19.3%. The Ki ([56]; read-out: Ki) was 2290 nM, the Ki ([56]; read-out: pKi (converted)) was 2110 nM and the inhibition [29] was 12.4%. It also gave an inhibition [30] of 65.1%, an inhibition (Rattus norvegicus) of 2.83% and an inhibition [31] of 2.83%. For the same compound, the inhibition [32] was 2.02%, the inhibition [33] was 30% and the inhibition [34] was 16.4%. It also gave an inhibition [35] of 39%, an inhibition [36] of 27.4% and an inhibition [37] of 21.5%. It also gave a Ki ([38]; read-out: Ki) of 1090 nM, a Ki ([38]; read-out: pKi (converted)) of 1080 nM and an inhibition (D(2) dopamine receptor [39]) of 2.85%. It also gave an inhibition [40] of 40.2%, an inhibition [41] of 40.4% and an inhibition [42] of 64.5%. The inhibition [43] was 9.93%, the inhibition [44] was 23.5% and the inhibition [47] was 33.3%. For the same compound, the inhibition [48] was 8.3%, the inhibition [49] was 16.4% and the inhibition [50] was 34.2%. It also gave an inhibition [51] of 6.22% and an inhibition [53] of 22%.
